One compound from patent US20260078341A1, “TREATMENT OF CANCER USING CHIMERIC ANTIGEN RECEPTOR” (Novartis AG, priority 2014, published 2026) can be followed below.

Structures are written as SMILES.

Assay [1] concerns influenza vaccine strains. The experiment in a line: Primary endpoint: HI GMT ratio relative to placebo in at least 2 of 3 influenza vaccine strains. It is filed as in vivo, human. As to conditions: ITT population. On the procedure:
(§1) The ability of RAD001 to improve immune function in elderly volunteers was evaluated by measuring the serologic response to the 2012 seasonal influenza vaccine. The hemagglutination inhibition (HI) geometric mean titers (GMT) to each of the 3 influenza vaccine strains at baseline and 4 weeks after influenza vaccination are provided in Table 6. The primary analysis variable was the HI GMT ratio (4 weeks post vaccination/baseline). […] This endpoint was chosen because a 1.2-fold increase in the influenza GMT ratio induced by the MF-59 vaccine adjuvant was associated with a decrease in influenza illness (Iob, A et al. (2005) Epidemiol Infect 133:687-693).
Elderly volunteers >=65 years of age were randomized to one of the 3 RAD001 treatment groups (50 subjects per arm) or placebo (20 subjects per arm). Subjects were treated with study drug for 6 weeks, given a 2 week break, and then received influenza (Aggrippal, Novartis) and pneumoccal (Pneumovax 23, Merck), vaccinations. Response to influenza vaccination was assessed by measuring the geometric mean titers (GMTs) by hemagglutination inhibition assay to the 3 influenza strains (H1N1, H3N2 and B influenza subtypes) in the influenza vaccine 4 weeks after vaccination. […] Antibody titers to 7 of the serotypes were measured in our subjects.

In assay [2] the test system is H1N1 A/California/07/2009. Briefly: Hemagglutination inhibition titers after influenza vaccination, A/H1N1 vaccine strain. It is filed as in vivo, human. As to conditions: for HI GMT ratio (CV %) A/H1N1: GMT at week 4 post vaccination/GMT at baseline. The procedure:
The trial was observer-blind because the placebo in the RAD001 0.5 mg daily and 20 mg weekly cohorts differed slightly from the RAD001 tablets in those cohorts. […] The treatment duration for all cohorts was 6 weeks during which time subjects underwent safety evaluations in the clinic every 2 weeks. After subjects had been dosed for 4 weeks, RAD001 steady state levels were measured pre-dose and at one hour post dose. After completing the 6 week course of study drug, subjects were given a 2 week drug free break to reverse any possible RAD001-induced immunosuppression, and then were given a 2012 seasonal influenza vaccination (Agrippal®, Novartis Vaccines and Diagnostics, Siena, Italy) containing the strains H1N1 A/California/07/2009, H3N2 A/Victoria/210/2009, B/Brisbane/60/2008. Four weeks after influenza vaccination, subjects had serum collected for influenza titer measurements. Antibody titers to the 3 influenza vaccine strains as well as to 2 heterologous strains (A/H1N1 strain A/New Jersy/8/76 and A/H3N2 strain A/Victoria/361/11) were measured by standard hemagglutination inhibition assay (Kendal, A P et al. (1982) Concepts and procedures for laboratory-based influenza surveillance. Atlanta: Centers for Disease Control and Prevention B17-B35). Levels of IgG and IgM specific for the A/H1N1/California/07/2009 were measured in serum samples taken before and 4 weeks after influenza vaccination as described previously (Spensieri, F. et al. (2013) Proc. Natl. Acad. Sci. USA 110:14330-14335). Results were expressed as fluorescence intensity.
The primary analysis of geometric mean titer ratios was done using a normal Bayesian regression model with non-informative priors. This model was fitted to each antibody titer on the log scale. The primary outcome in each model was the Day 84 measurement. The Day 63 measurement was included in the outcome vector. The model fitted using SAS 9.2 proc mixed with the prior statement. The covariance structure of the matrix was considered as unstructured (option type=UN). A flat prior was used. For the secondary analysis of seroconversion rates, logistic regression was used.
as §1
Rates of seroconversion 4 weeks after influenza vaccination were also evaluated. Seroconversion was defined as the change from a negative pre-vaccination titer (i.e., HI titer <1:10) to post-vaccination HI titer ≥1:40 or at least 4-fold increase from a non-negative (>1:10) pre-vaccination HI titer.

For the compound `CO[C@H]1C[C@@H]2CC[C@@H](C)[C@@](O)(O2)C(=O)C(=O)N2CCCC[C@H]2C(=O)O[C@H]([C@H](C)C[C@@H]2CC[C@@H](OCCO)[C@H](OC)C2)CC(=O)[C@H](C)/C=C(\C)[C@@H](O)[C@@H](OC)C(=O)[C@H](C)C[C@H](C)/C=C/C=C/C=C/1C` [RAD001, (1R,9S,12S,15R,16E,18R,19R,21R,23S,24E,26E,28E,30S,32S,35R)-1,18-dihydroxy-12-{(1R)-2-[(1S,3R,4R)-4-(2-hydroxyethoxy)-3-methoxycyclohexyl]-1-methylethyl}-19,30-dimethoxy-15,17,21,23,29,35-hexamethyl-11,36-dioxa-4-azatricyclo[30.3.1.0^4,9]hexatriaconta-16,24,26,28-tetraene-2,3,10,14,20-pentaone], the “primary endpoint of the study (HI GMT ratio)” value in assay [1] (0.5 mg daily or 5 mg weekly) is “met the GMT primary endpoint”; in assay [1] (20 mg weekly) it was “but not higher dose (20 mg weekly) cohort met the primary endpoint”. Besides, the “HI GMT (CV %) A/H1N1” value in assay [2] (Baseline (2 weeks prior to influenza vaccination), RAD001 0.5 mg daily) is given as 102.8 (186.9); in assay [2] (Baseline (2 weeks prior to influenza vaccination), RAD001 5 mg weekly) it was 84.2 (236.4); in assay [2] (Baseline (2 weeks prior to influenza vaccination), RAD001 20 mg weekly), 90.1 (188.4); in assay [2] (Week 4 after influenza vaccination, RAD001 0.5 mg daily) it was 190.2 (236.9); in assay [2] (Week 4 after influenza vaccination, RAD001 5 mg weekly) it was 198.73(195.6); in assay [2] (Week 4 after influenza vaccination, RAD001 20 mg weekly), 129.7 (175.9). The “HI GMT ratio (CV %) A/H1N1” value was 2.6 (302.5) in assay [2] (RAD001 0.5 mg daily), 2.5 (214.3) in assay [2] (RAD001 5 mg weekly) and 1.8 (201.5) in assay [2] (RAD001 20 mg weekly). In addition, the “Percent of subjects with seroconversion to influenza 4 weeks after vaccination, H1N1” value is given as 27% in assay [2] (Intention to Treat Population, 0.5 mg); 27% in assay [2] (Intention to Treat Population, 5 mg); 17% in assay [2] (Intention to Treat Population, 20 mg); 42% in assay [2] (Subjects with Baseline Titers <=40, 0.5 mg); 45% in assay [2] (Subjects with Baseline Titers <=40, 5 mg); 36% in assay [2] (Subjects with Baseline Titers <=40, 20 mg).
